# Results published in US9867372B2, “Tetrazolinone compound and use of same” (SUMITOMO CHEMICAL COMPANY, LIMITED, priority 2013, dated 2018).
# System: barley net blotch fungus (Pyrenophora teres)
# Experiment: barley net blotch control test, foliar spray before inoculation
# Assay type: in vivo
# Conditions: 3.1 ppm, sprayed 2 days before inoculation (Test Example 1, Comparative Example 1)
row,Compound,area of lesion spots on the treated plant relative to that on an untreated plant
1,"Cc1cccc(-n2nnn(C)c2=O)c1COc1cccc(-c2ccccc2)n1 [compound 1, 1-methyl-4-[3-methyl-2-(6-phenylpyridin-2-yloxymethyl)phenyl]-1,4-dihydrotetrazol-5-one]",≤ 30%
2,"Cn1nnn(-c2ccccc2COc2cccc(-c3ccccc3)n2)c1=O [1-methyl-4-[2-(6-phenylpyridin-2-yloxymethyl)-phenyl]-1,4-dihydrotetrazol-5-one, reference compound]",≥ 70%

# System: cotton aphid (Aphis gossypii)
# Experiment: cotton aphid control test on cucumber, spray
# Assay type: in vivo
# Conditions: 144 h, 20 mL sprayed, counted after 6 days (Test Example 20)
# Procedure: Thirty (30) heads of cotton aphid (Aphis gossypii) (including adults and larvae) were released on the leaves of cucumber (cultivar: […]) grown in a polyethylene cup until the first true leaf was developed. Next day, 20 mL of the above test chemical solution was sprayed. […] Control value (%)={1-(Cb×Tai)/(Cai×Tb)}×100 wherein symbols in the equation represent the followings: Cb: Number of insects before spraying chemical solution in untreated area; Cai: Number of surviving insects in untreated area; Tb: Number of insects before spraying chemical solution in treated area; and Tai: Number of surviving insects in treated area.
row,Compound,pest or weed control at 500 ppm
1,Cc1ccc(OCc2c(C)cccc2-n2nnn(C)c2=O)cc1-c1ccc(F)cc1 [compound 119],≥ 90%
2,COc1cccc(-c2ccc(Cl)c(OCc3c(C)cccc3-n3nnn(C)c3=O)c2)c1 [compound 135],≥ 90%
3,COc1cccc(-c2cccc(OCc3c(C)cccc3-n3nnn(C)c3=O)c2F)c1 [compound 111],≥ 90%
4,"COc1ccc(-c2cccc(OCc3c(C)cccc3-n3nnn(C)c3=O)c2)nn1 [compound 165, 1-{2-[3-(3-methoxypyridazin-6-yl)phenoxymethyl]-3-methylphenyl}-4-methyl-1,4-dihydrotetrazol-5-one]",≥ 90%
5,Cc1cccc(-n2nnn(C)c2=O)c1COc1cc(-c2ccccc2)ccc1Cl [compound 128],≥ 90%
6,COc1ccc(-c2cc(OCc3c(C)cccc3-n3nnn(C)c3=O)ccc2OC)cn1 [compound 139],≥ 90%
7,COc1ccc(-c2cccc(OCc3c(OC)cccc3-n3nnn(C)c3=O)c2)cc1 [compound 44],≥ 90%
8,Cc1cccc(-n2nnn(C)c2=O)c1COc1cc(-c2ccc(Cl)cc2)ccc1F [compound 134],≥ 90%
9,Cc1cc(OCc2c(C)cccc2-n2nnn(C)c2=O)cc(-c2ccccc2)c1 [compound 143],≥ 90%
10,Cc1cccc(-n2nnn(C)c2=O)c1COc1cccc(-c2ccc3ocnc3c2)c1 [compound 159],≥ 90%
11,COc1ccc(-c2cc(C)cc(OCc3c(C)cccc3-n3nnn(C)c3=O)c2)cc1 [compound 142],≥ 90%
12,Cc1ccc(OCc2c(C)cccc2-n2nnn(C)c2=O)cc1-c1ccc(Cl)cc1 [compound 122],≥ 90%

# System: common cutworm (Spodoptela litura)
# Experiment: common cutworm larvae mortality test, treated artificial diet
# Assay type: in vivo
# Conditions: 500 ppm, 2 mL on Insecta LF, third instar larvae, after 6 days (Test Example 25)
row,Compound,mortality
1,COc1ccccc1-c1cccc(OCc2c(C)cccc2-n2nnn(C)c2=O)c1 [compound 52],100%

# System: (Adoxophyes orana)
# Experiment: Adoxophyes orana larvae mortality test, treated artificial diet
# Assay type: in vivo
# Conditions: 500 ppm, 1 mL on Silkmate 2S, first instar larvae, after 7 days (Test Example 26)
row,Compound,mortality
1,COc1ccccc1-c1cccc(OCc2c(C)cccc2-n2nnn(C)c2=O)c1 [compound 52],100%

# System: tomato late blight fungus (Phytophthora infestans)
# Experiment: not given
# Assay type: in vivo
# Conditions: 500 ppm, sprayed 2 days before inoculation (Test Example 17)
row,Compound,area of lesion spots on the treated plant relative to that on an untreated plant
1,COc1ccc(-c2cccc(OCc3c(C)cccc3-n3nnn(C)c3=O)c2)cn1 [compound 57],≤ 30%
